# Several values for one entry are separate records, joined by “and”; a condition that tells them apart may be missing. Equal entries are not always repeated. Numbered stars: 1 amine (or outer) side, 2 acyl side, 3 side chain; on linkers, the order of the positions; unused ones are H or OH. Square brackets hold non-standard residues; d marks the D form. Peptide text beside a SMILES is read from it. * marks the point of attachment. C18 diacid = O=C(O)CCCCCCCCCCCCCCCCC(=O)*; γGlu = O=C(O)[C@H](CCC(=O)[*:2])N[*:1]; Cha = N[C@@H](CC1CCCCC1)C(=O)O; NMeL = CN[C@@H](CC(C)C)C(=O)O; Nle = CCCC[C@H](N)C(=O)O; AEEA = NCCOCCOCC(=O)O; βAla = NCCC(=O)O
# How the values were obtained:
# Assay in all cases: IP3 assay (inositol trisphosphate, 3H-myoinositol) in transiently transfected COS-7 cells
# Type in all cases: cell-based
# hNK1R = biological target: T1, hNK1R (Homo sapiens, UniProt P25103); conditions: COS-7 cells; for hNK1R, IP3 Efficacy: figure legends: percent of 10^-6 M NKA; for EC50: 0.2% ovalbumin buffer
# T1 construct: host or cells: COS-7
# T1 sequence (P25103 whole entry): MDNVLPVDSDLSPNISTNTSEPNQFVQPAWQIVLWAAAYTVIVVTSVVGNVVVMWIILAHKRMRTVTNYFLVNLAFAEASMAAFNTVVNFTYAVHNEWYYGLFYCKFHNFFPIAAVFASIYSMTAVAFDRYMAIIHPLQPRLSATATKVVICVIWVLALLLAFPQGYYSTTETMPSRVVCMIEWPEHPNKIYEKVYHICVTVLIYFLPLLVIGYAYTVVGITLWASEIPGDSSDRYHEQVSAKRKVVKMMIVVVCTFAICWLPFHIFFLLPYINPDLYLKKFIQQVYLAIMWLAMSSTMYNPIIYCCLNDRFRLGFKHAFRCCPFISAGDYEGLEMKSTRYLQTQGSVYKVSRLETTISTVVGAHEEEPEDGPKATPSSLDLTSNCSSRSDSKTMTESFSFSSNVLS
# Experimental: (§1) Agonist-induced G-protein coupled receptor (GPCR) activation was measured by an Inositol-1,4,5-Trisphosphate [^3H] Radioreceptor Assay (IPs Assay). Assays were carried out using COS-7 cells transiently transfected by calcium phosphate transfection with a vector pcDNA3.1(+) encoding one of the indicated receptors (Genscript). Briefly, DNA mixed with CaCl2 (2 M) and TE-buffer (10 mM Tris-HCl, 1 mM EDTA, pH 7.5) was dropwise added to 2×HBS (50 mM HEPES, 280 mM NaCl, 1.5 mM NaH2PO4, pH 7.2) and incubated for 45 min at room temperature (22±2° C.). The mixture and a final concentration of 100 μM Chloroquine were added to the cells and left to incubate for 5 hours at 37° C. under standard cell culture conditions (10% CO2) before changing medium to fresh medium containing 5 μl/mL Myo-[2-^3H(N)]-inositol (labelling medium).
# (§2) The IP3 assay takes advantage of the tachykinin receptors' ability to induce production of the inositol trisphosphate (IP3) second messenger upon agonist (ligand) binding on receptor expressing cells following an initial ^3H-inositol labelling period. In effect this means that production of the second messenger IP3 as a measure of receptor activity can be assessed by counting ^3H-activity.
# (§3) Assay solutions used: Wash buffer (HBSS), Assay buffer (HBSS+10 mM LiCl and 0,2% w/v ovalbumin), Lysis buffer (10 mM formic acid), and SPA YSI beads (12.5 mg/ml in H2O). The assay was performed the day after transfection. Briefly, labelling medium was aspirated, and plates were washed ×1 in wash buffer before adding 100 μl assay buffer, pre-incubated for 30 min followed by 120 min incubation with agonist, both at 37° C. After incubation, plates were immediately placed on ice and the incubation medium was aspirated and 40 μl of 10 mM formic acid per well was added. Plates were incubated for at least 30 min on ice. 60 μl (1 mg/well) SPA YSI beads/well was pipetted into a solid white 96 wells plate and 35 μl of the lysis solution was transferred to the plate before covering plates with seal cover and shaking for 10 min. (max speed). Centrifuge plates and leave for 8 hours at room temperature before counting the plates in a MicroBeta plate counter (Perkin Elmer).
# hNK2R = biological target: T2, hNK2R (Homo sapiens, UniProt P21452); conditions: COS-7 cells; for EC50: 0.2% ovalbumin buffer; for hNK2R, IP3 Efficacy: figure legends: percent of 10^-6 M NKA
# T2 construct: host or cells: COS-7
# T2 sequence (P21452 1-398): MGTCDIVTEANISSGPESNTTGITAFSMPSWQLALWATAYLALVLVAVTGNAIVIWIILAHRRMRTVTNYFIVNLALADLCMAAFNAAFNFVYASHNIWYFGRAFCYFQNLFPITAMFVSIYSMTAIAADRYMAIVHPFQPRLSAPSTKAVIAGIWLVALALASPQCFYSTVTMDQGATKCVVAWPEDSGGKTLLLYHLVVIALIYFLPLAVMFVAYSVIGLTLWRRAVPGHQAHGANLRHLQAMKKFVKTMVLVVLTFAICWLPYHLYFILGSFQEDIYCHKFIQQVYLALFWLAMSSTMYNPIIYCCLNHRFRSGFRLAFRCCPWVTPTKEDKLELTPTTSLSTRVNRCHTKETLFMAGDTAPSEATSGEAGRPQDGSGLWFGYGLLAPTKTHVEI
# Experimental: as §1, §2, §3
# hNK3R = biological target: T3, hNK3R (Homo sapiens, UniProt P29371); conditions: COS-7 cells; for hNK3, IP3 Efficacy: figure legends: percent of 10^-6 M NKA; for EC50: 0.2% ovalbumin buffer, read-out: hNK3, IP3 EC50
# T3 construct: host or cells: COS-7
# T3 sequence (P29371 1-465): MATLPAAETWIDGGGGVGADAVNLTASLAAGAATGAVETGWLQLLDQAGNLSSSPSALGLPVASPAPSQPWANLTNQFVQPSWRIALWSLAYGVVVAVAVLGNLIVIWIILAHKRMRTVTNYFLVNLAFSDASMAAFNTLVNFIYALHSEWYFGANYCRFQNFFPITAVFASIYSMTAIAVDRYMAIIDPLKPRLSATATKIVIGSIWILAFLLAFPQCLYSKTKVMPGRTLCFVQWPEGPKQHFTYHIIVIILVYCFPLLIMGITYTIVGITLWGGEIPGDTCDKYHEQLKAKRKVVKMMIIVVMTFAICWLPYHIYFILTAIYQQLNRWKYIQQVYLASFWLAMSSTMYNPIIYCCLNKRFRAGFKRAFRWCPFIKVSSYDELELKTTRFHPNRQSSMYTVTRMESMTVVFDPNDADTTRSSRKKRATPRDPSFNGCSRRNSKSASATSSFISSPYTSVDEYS
# Experimental: as §1, §2, §3
Structure (SMILES),"hNK1R, IP3 Efficacy (hNK1R)",EC50 (hNK2R),"hNK2R, IP3 Efficacy (hNK2R)","hNK3, IP3 Efficacy (hNK3R)",EC50 (hNK1R),EC50 (hNK3R)
"CC(C)C[C@@H](C(=O)N[C@@H](CC1CCCCC1)C(N)=O)N(C)C(=O)CNC(=O)[C@@H](NC(=O)[C@H](Cc1ccc(O)cc1)NC(=O)[C@H](CCCCN)NC(=O)[C@H](CC(=O)O)NC(=O)COCCOCCNC(=O)COCCOCCNC(=O)CC[C@H](NC(=O)CCCCCCCCCCCCCCCCC(=O)O)C(=O)O)C(C)C [compound 313, *Asp;Lys;Tyr;Val;Gly;NmLeu;cHexAla;NH2] ({C18 diacid-γGlu-AEEA-AEEA}-DKYVG[NMeL][Cha]-NH2)",20%,0.023 µM,70%,0%,,
"CCCC[C@H](NC(=O)[C@H](CC(C)C)N(C)C(=O)CNC(=O)[C@@H](NC(=O)[C@H](Cc1ccccc1)NC(=O)[C@H](CCCCN)NC(=O)[C@H](CCC(=O)O)NC(=O)COCCOCCNC(=O)COCCOCCNC(=O)CC[C@H](NC(=O)CCCCCCCCCCCCCCCCC(=O)O)C(=O)O)C(C)C)C(N)=O [compound 335, *Glu;Lys;Phe;Val;Gly;NmLeu;Nle;NH2] ({C18 diacid-γGlu-AEEA-AEEA}-EKFVG[NMeL][Nle]-NH2)",70% and 72%,0.0016 µM,80%,100%,0.036 µM,0.113 µM
"CSCC[C@H](NC(=O)[C@H](CC(C)C)N(C)C(=O)CNC(=O)[C@@H](NC(=O)[C@H](Cc1ccccc1)NC(=O)[C@H](CCCCNC(=O)COCCOCCNC(=O)COCCOCCNC(=O)CC[C@H](NC(=O)CCCCCCCCCCCCCCCCC(=O)O)C(=O)O)NC(=O)[C@H](CC(=O)O)NC(C)=O)C(C)C)C(N)=O [compound 301, **Asp;Lys*;Phe;Val;Gly;NmLeu;Met;NH2]",64%,0.038 µM,63%,85%,~1.5 µM,0.16 µM
"CCCC[C@H](NC(=O)[C@H](CC(C)C)N(C)C(=O)CNC(=O)[C@@H](NC(=O)[C@H](Cc1ccc(O)cc1)NC(=O)[C@H](CCCCN)NC(=O)[C@@H](N)CC(=O)O)C(C)C)C(N)=O [compound 374, Asp;Lys;Tyr;Val;Gly;NmLeu;Nle;NH2] (H-DKYVG[NMeL][Nle]-NH2)",50%,0.0058 µM,90%,0%,0.2 µM,
"CCCC[C@H](NC(=O)[C@H](CC(C)C)N(C)C(=O)CCNC(=O)[C@@H](NC(=O)[C@H](Cc1ccccc1)NC(=O)[C@H](CO)NC(=O)[C@H](CC(=O)O)NC(=O)[C@@H](NC(=O)[C@H](CCCCN)NC(=O)COCCOCCNC(=O)COCCOCCNC(=O)CC[C@H](NC(=O)CCCCCCCCCCCCCCCCC(=O)O)C(=O)O)[C@@H](C)O)C(C)C)C(N)=O [compound 310, *Lys;Thr;Asp;Ser;Phe;Val;bAla;NmLeu;Nle;NH2] ({C18 diacid-γGlu-AEEA-AEEA}-KTDSFV[βAla][NMeL][Nle]-NH2)",0%,0.045 µM,65%,80%,,
"CCCC[C@H](NC(=O)[C@H](CC(C)C)NC(=O)CNC(=O)[C@@H](NC(=O)[C@H](Cc1ccccc1)NC(=O)[C@H](CCCCN)NC(=O)[C@H](CC(=O)O)NC(=O)COCCOCCNC(=O)COCCOCCNC(=O)CC[C@H](NC(=O)CCCCCCCCCCCCCCCCC(=O)O)C(=O)O)C(C)C)C(N)=O [compound 389, *Asp;Lys;Phe;Val;Gly;Leu;Nle;NH2]",108% and 100%,0.0028 µM and 0.0029 µM,83% and 80%,100% and 60%,0.016 µM and 0.015 µM,0.035 µM
